# In patent publication US20240358848A1, “ANTITUMOR COMPOUND AND USE THEREOF” (priority 2021, published 2024):
# Like-named read-outs stand apart in the source and are kept apart here.
# Tested on: KPL-4 Cells
# Experiment: Cell proliferation inhibition assay (CellTiter-Glo, 72 h)
# Assay type: cell-based
# Procedure: KPL-4 Cells in the logarithmic phase of growth were collected and re-suspended with fresh RPMI1640 complete cell culture medium, and adjusted to 2×10^4 cells/mL after cell counting. Cells were seeded into 96-well cell culture plates at 100 μL/well, and placed in a CO2 incubator (37° C., 5% CO2) overnight. In the next day, one of the cell culture plates were taken out, balanced to room temperature, and CellTiter-Glo reagent (Promega, USA), which was pre-balanced to room temperature and evenly mixed, was added into the plate at 100 μl/well. The plate was kept in dark for 30 min, and then luminescence value was read with a microplate reader (denoted as G0 value). The other cell culture plates were taken out and added with different concentrations of test compounds or DMSO (final concentration 0.5%) in corresponding wells. After incubated for 72 h in a CO2 incubator, the cell culture plates were balanced to room temperature and tested for cell viabilities using CellTiter-Glo reagent as described above (denoted as G3 value).
# The cell proliferation rates were calculated using the following formula: Cell proliferation rate (%)=(mean of G3compound−mean of G0)/(mean of G3DMSO−mean of G0)×100.
# [1] = KPL4, KPL-4, 72 h, read-out: GI50
SMILES,"GI50 (KPL4, 72 h) [nM]",GI50 [1] [nM]
"CC[C@@]1(O)C(=O)OCc2c1cc1n(c2=O)Cc2c-1nc1cc(F)c(C)c3c1c2[C@@H](NC(=O)CO)CC3 [DXd, reference compound]",72,
CC[C@@]1(O)C(=O)OCc2c1cc1n(c2=S)Cc2c-1nc1cc(F)c(C)c3c1c2[C@H](NC(=O)CO)CC3 [Y],,10.3
CC[C@@]1(O)C(=O)OCc2c1cc1n(c2=S)Cc2c-1nc1cc(F)c(C)c3c1c2[C@@H](NC(=O)CO)CC3 [X],,13.9
